According to patent US4650874A, “N-(aralkoxybenzyl)-4(benzhydryl) piperidines” (G. D. Searle & Co., priority 1984, dated 1987):
Counter-ions that a name gives are not always drawn.

Columns and labels:
[1] = tested on: spontaneously hypertensive rats; experiment: Anti-hypertensive activity in the unanesthetized spontaneously hypertensive rat (SHR) assay; format: in vivo; conditions: for minimal effective dose: Rattus norvegicus, read-out: Threshold Dose mg/kg intravenous; for minimal effective dose / Threshold Dose mg/kg intravenous: intravenous; for Oral Activity (Blood Pressure Lowering): intragastrically 50 mg/kg
Procedure: Male, unanesthetized spontaneously hypertensive rats, 11 to 16 weeks old were used in this test procedure. The compounds to be tested were administered intragastrically at a dose of 50 mg/kg or intraarterially/intravenously at a dose of 10 mg/kg.
Initial mean arterial blood pressure was measured directly via a previously implanted arterial catheter immediately before administration of the test compound. Blood pressure readings were made at 1, 2, 3, and 4 hours following administration of the test compound. […] Statistical comparisons were made using the paired Student's T test with two sided probability calculations.

[2] = target: T1, vascular smooth muscle (isolated thoracic aorta segments) (Rattus norvegicus, UniProt P22002); experiment: Calcium antagonism in vascular smooth muscle (isolated thoracic aorta segments from male spontaneously hypertensive rats); format: cell-based; conditions: for activity as vascular calcium antagonist (in words): isolated SHR aorta; for Kb: read-out: pA2 (Ca++ Antagonism) (converted)
T1 construct: The excised aorta segment was mounted in a tissue bath containing modified Krebs solution; from tissue; host or cells: thoracic aorta segments of male spontaneously hypertensive rats
Procedure: Isolated thoracic aorta segments from the male spontaneously hypertensive rat were utilized in this test procedure.
The excised aorta segment was mounted in a tissue bath containing modified Krebs solution. After depolarization of the tissue with potassium (100 mM), calcium, in cumulative concentrations of 1×10^-3 M, 3.2×10^-3 M, and 1×10^-2 M was injected into the bath to produce vascular smooth muscle contraction. The developed tension (in grams) is measured and control dose-response values obtained. After one hour of incubation with a test compound at 1×10^-6 M concentration, the same doses of calcium ions were repeated. The log dose-response curves of the control and after treatment were analyzed by linear regression. The pA2 value was calculated as a measure of calcium antagonism of the test compound. See Van Rossum, J. M., Arch. Int. Pharmacodyn, 143, 299-330, 1963.
Calcium ions play an essential role in induction and maintenance of vascular smooth muscle contractility. In potassium depolarized vascular smooth muscle, calcium antagonists may block the entry of calcium ions into the cell or act by other mechanisms to inhibit the contractions induced by calcium ions. The inhibition of calcium ion - induced contraction of vascular smooth muscle is used to test compounds for vascular calcium antagonism. Cardiovascular diseases such as arrythmias, angina-pectoris, hypertension, and peripheral vascular disease may be casually related to abnormalities in cellular handling of calcium ions.

[3] = 1×10^-6 M, one hour incubation, K+ (100 mM) depolarized SHR aorta

T1 sequence (P22002 whole entry): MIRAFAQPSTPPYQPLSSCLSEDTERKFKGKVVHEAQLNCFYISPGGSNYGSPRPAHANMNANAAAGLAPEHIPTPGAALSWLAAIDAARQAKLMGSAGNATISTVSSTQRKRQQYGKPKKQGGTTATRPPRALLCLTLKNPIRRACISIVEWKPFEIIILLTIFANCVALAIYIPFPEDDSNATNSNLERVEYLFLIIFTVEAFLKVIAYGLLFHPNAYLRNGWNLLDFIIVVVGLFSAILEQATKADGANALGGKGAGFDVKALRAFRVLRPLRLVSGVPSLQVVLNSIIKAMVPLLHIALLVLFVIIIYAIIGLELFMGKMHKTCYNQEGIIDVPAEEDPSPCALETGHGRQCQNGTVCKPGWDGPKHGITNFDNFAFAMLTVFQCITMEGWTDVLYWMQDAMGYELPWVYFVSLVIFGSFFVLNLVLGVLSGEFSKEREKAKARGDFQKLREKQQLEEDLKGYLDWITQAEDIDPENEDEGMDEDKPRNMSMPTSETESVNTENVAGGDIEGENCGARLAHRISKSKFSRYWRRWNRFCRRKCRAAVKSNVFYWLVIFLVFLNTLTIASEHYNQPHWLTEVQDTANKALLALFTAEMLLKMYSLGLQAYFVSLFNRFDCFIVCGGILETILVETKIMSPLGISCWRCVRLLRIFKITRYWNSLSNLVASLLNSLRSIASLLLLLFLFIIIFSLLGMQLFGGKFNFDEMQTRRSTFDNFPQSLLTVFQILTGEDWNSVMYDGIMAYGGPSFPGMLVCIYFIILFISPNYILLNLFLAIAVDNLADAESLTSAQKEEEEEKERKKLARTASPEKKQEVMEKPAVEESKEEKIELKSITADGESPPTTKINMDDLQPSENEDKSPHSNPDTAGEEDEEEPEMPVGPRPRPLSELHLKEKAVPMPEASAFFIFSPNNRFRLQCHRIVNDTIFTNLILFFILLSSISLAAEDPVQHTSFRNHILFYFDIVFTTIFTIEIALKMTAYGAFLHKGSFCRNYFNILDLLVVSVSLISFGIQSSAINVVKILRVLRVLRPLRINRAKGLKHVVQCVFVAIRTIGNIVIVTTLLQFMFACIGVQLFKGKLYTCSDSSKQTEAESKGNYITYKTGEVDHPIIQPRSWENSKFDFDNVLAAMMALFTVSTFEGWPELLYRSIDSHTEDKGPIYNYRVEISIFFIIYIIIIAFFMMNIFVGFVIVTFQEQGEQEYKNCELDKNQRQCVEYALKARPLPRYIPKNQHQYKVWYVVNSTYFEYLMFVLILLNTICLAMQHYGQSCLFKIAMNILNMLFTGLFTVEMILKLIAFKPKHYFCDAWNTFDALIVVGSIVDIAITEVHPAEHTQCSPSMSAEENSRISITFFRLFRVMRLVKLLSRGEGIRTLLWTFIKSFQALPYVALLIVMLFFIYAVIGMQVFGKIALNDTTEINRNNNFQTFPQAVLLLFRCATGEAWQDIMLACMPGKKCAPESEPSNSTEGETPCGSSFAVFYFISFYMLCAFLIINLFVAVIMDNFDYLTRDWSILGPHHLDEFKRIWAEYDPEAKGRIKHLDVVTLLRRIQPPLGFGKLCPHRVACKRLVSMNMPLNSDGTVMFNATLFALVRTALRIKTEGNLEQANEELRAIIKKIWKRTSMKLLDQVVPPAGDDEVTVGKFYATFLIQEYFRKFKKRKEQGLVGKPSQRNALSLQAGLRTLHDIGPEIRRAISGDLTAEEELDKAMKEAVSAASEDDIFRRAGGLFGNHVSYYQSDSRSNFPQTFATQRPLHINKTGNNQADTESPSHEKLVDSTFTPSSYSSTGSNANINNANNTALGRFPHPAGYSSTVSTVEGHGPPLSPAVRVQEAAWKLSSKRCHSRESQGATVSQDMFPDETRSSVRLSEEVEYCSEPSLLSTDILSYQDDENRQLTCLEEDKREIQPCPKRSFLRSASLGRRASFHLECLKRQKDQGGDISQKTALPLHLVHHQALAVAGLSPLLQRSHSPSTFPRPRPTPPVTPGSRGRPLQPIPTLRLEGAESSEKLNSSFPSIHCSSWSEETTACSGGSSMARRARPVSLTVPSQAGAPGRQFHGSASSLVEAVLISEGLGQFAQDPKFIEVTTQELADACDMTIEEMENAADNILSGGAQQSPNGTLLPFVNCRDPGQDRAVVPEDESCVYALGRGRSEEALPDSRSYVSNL

SMILES | SHR mm Hg @ 10 mg/kg intravenous (blood pressure lowering) ([1]; SHR) | Kb [2, 3] | minimal effective dose ([1]; SHR) | also measured
C[C@](N)(Cc1ccc(O)c(O)c1)C(=O)O [Aldomet, reference compound] | – | – | – | activity in the hypertensive rat assay (in words) ([1]; SHR): active
NNc1nncc2ccccc12 [Apresoline, reference compound] | – | – | – | activity in the hypertensive rat assay (in words) ([1]; rat, in vivo): active
C[C@H](CS)C(=O)N1CCC[C@H]1C(=O)O [Captopril, reference compound] | – | – | – | activity in the hypertensive rat assay (in words) ([1]; SHR): active
Clc1cccc(Cl)c1N=C1NCCN1 [Clonidine, reference compound] | – | – | – | activity in the hypertensive rat assay (in words) ([1]; rat, in vivo): active
COc1ccc([C@@H]2Sc3ccccc3N(CCN(C)C)C(=O)[C@@H]2OC(C)=O)cc1 [Diltiazem, reference compound] | – | – | – | activity as vascular calcium antagonist (in words) [2]: active
CCOC(=O)c1cc(OCc2ccccc2)ccc1CN1CCC(C(c2ccccc2)c2ccccc2)CC1 [Example 2, ethyl 2-[[4-(diphenylmethyl)-1-piperidinyl]methyl]-5-(phenylmethoxy)benzoate] | inactive | – | – | pA2 (Ca++ Antagonism) [2, 3]: inactive
COc1ccc(CN2CCC(C(c3ccccc3)c3ccccc3)CC2)cc1OCc1ccccc1 [Example 3, 4-(diphenylmethyl)-1-[[[4-methoxy-3-(phenylmethoxy)phenyl]methyl]piperidine, ethanedioate] | 79 mm Hg | 25.7 nM | 0.3 mg/kg | –
CC(C)(C)NC(=O)c1cc(OCc2ccccc2)ccc1CN1CCC(C(c2ccccc2)c2ccccc2)CC1 [Example 4, 2-[[4-(diphenylmethyl)-1-piperidinyl]methyl]-5-(phenylmethoxy)-N-(1,1-dimethylethyl) benzamide] | 29 mm Hg | 186 nM | 0.3 mg/kg | –
Oc1ccc(CN2CCC(C(c3ccccc3)c3ccccc3)CC2)cc1 [Example 5, 4-[[4-(diphenylmethyl)-1-piperidinyl]methyl]phenol] | – | – | – | Oral Activity (Blood Pressure Lowering) ([1]; SHR): inactive
c1ccc(COc2ccc(CN3CCC(C(c4ccccc4)c4ccccc4)CC3)cc2)cc1 [Example 6, 4-(diphenylmethyl)-1-[[4-(phenylmethoxy)phenyl]methyl] piperidine, hydrochloride] | 88 mm Hg | 10.7 nM | 0.3 mg/kg | –
Cc1ccc(COc2ccc(CN3CCC(C(c4ccccc4)c4ccccc4)CC3)cc2)cc1 [Example 7, 4-(diphenylmethyl)-1-[[4-[(4-methylphenyl)methoxy]phenyl]methyl] piperidine, 2-butendioate] | 56 mm Hg | – | 1 mg/kg | –
COc1ccc(COc2ccc(CN3CCC(C(c4ccc(F)cc4)c4ccc(F)cc4)CC3)cc2)cc1 [Example 8] | 50 mm Hg | 18.2 nM | 1 mg/kg | –
COc1ccc(COc2ccc(CN3CCC(C(c4ccccc4)c4ccccc4)CC3)cc2)cc1 [Example 9, 4-(diphenylmethyl)-1-[[4-[(4-methoxyphenyl)methoxy]phenyl]methyl]piperidine] | – | 41.7 nM | – | –
Fc1ccc(C(c2ccc(F)cc2)C2CCN(Cc3ccc(OCc4ccccc4)cc3)CC2)cc1 [Example 10, [bis(4-fluorophenyl)methyl]-1-[[4-(phenylmethoxy)phenyl]methyl]piperidine] | 67 mm Hg | 26.9 nM | 0.3 mg/kg | –
Fc1ccc(C(c2ccc(F)cc2)C2CCN(Cc3ccc(OCc4ccc(Cl)cc4)cc3)CC2)cc1 [Example 11, 4-[bis(4-fluorophenyl)methyl]-1-[[4-[(4-chlorophenyl)methoxy]phenyl]methyl]piperidine, hydrobromide] | 107 mm Hg | 8.71 nM | 0.3 mg/kg | –
Fc1ccc(C(c2ccc(F)cc2)C2CCN(Cc3ccc(OCc4ccc(Cl)cc4Cl)cc3)CC2)cc1 [Example 12, 4-[bis(4-fluorophenyl)methyl]-1-[[4-[(2,4-dichlorophenyl)methoxy]phenyl]methyl] piperidine, hydrochloride] | 79 mm Hg | 30.2 nM | 0.1 mg/kg | –
Fc1cccc(C(c2cccc(F)c2)C2CCN(Cc3ccc(OCc4ccccc4)cc3)CC2)c1 [Example 13] | inactive | 12.9 nM | – | Threshold Dose mg/kg intravenous ([1]; SHR): inactive
Clc1ccc(COc2ccc(CN3CCC(C(c4ccccc4)c4ccccc4)CC3)cc2)cc1 [Example 14, 1-[[4-[(4-chlorophenyl)methoxy]phenyl]methyl]-4-(diphenylmethyl)piperidine] | – | 38.9 nM | – | Oral Activity (Blood Pressure Lowering) ([1]; SHR): active
Clc1ccc(COc2ccc(CN3CCC(C(c4ccccc4)c4ccccc4)CC3)cc2)cc1 [Example 15, 1-[[4-[(4-chlorophenyl)methoxy]phenyl]methyl]-4-(diphenylmethyl)piperidine, 2-butenedioate] | 89 mm Hg | – | 1 mg/kg | –
Clc1ccc(COc2ccc(CN3CCC(C(c4ccccc4)c4ccccc4)CC3)cc2)cc1Cl [Example 16, 1-[[4-[(3,4-dichlorophenyl)methoxy]phenyl]methyl]-4-(diphenylmethyl)piperidine, 2-butenedioate] | 81 mm Hg | – | 0.3 mg/kg | –
Clc1ccc(COc2ccc(CN3CCC(C(c4ccccc4)c4ccccc4)CC3)cc2)c(Cl)c1 [Example 17, 1-[[4-[(2,4-dichlorophenyl)methoxy]phenyl]methyl]-4-(diphenylmethyl)piperidine] | inactive | 40.7 nM | – | Threshold Dose mg/kg intravenous ([1]; SHR): inactive
Fc1ccccc1COc1ccc(CN2CCC(C(c3ccccc3)c3ccccc3)CC2)cc1 [Example 18, 4-(diphenylmethyl)-1-[[4-[(2-fluorophenyl)methoxy]phenyl]methyl]piperidine] | 65 mm Hg | 70.8 nM | 0.3 mg/kg | Oral Activity (Blood Pressure Lowering) ([1]; SHR): active
COc1ccc(CN2CCC(C(c3ccccc3)c3ccccc3)CC2)cc1OCc1ccc(Cl)cc1 [Example 19] | 75 mm Hg | 457 nM | 1 mg/kg | –
c1ccc(C(c2ccccc2)C2CCN(Cc3ccc(OCC4CCCCC4)cc3)CC2)cc1 [Example 20] | inactive | 44.7 nM | – | –
COc1cc(CN2CCC(C(c3ccccc3)c3ccccc3)CC2)ccc1OCc1ccccc1 [Example 21] | 18 mm Hg | – | 0.1 mg/kg | Oral Activity (Blood Pressure Lowering) ([1]; SHR): active
COC(=O)C1=C(C)NC(C)=C(C(=O)OC)C1c1ccccc1[N+](=O)[O-] [Nifedipine, reference compound] | – | – | – | activity as vascular calcium antagonist (in words) [2]: active
COc1ccc(CCN(C)CCCC(C#N)(c2ccc(OC)c(OC)c2)C(C)C)cc1OC (stereo not shown) [Verapamil, reference compound] | – | – | – | activity as vascular calcium antagonist (in words) [2]: active
